Values after ≈ are worked out from the molar mass of the structure shown.
How the values were obtained:
T24 cells = assay: MTT cell proliferation assay; type: cell-based, human
Method: (§1) Human tumor cell lines Eca-109, BEL-7402, BxPC-3, HCT-116, HT-29, T24, HCT-8, SGC-7901, DLD-1, TE-1, BT-549, MGC-803 and human hepatocyte cell line L-02 were cultured in Roswell Park Memorial Institute (RPMI) 1640. HuH-7 and SW-480 were cultured in Dulbecco’s modified Eagle’s medium (DMEM). J82, HepG2, Hela, U87 were cultured in Minimum Essential Medium (MEM). Murine bladder cancer cell line, MB49, was cultured in DMEM. The above-mentioned culture medium was provided by GIBCO (Grand Island, USA), contained 10% fetal bovine serum (PAN, Germany), 10 mg/mL of streptomycin, and 10 kU/mL penicillin (Beyotime, China).
(§2) Cells were seeded in 96-well plates and incubated with indicated concentrations of CHNQD-01281 for indicated periods. Next, medium was discarded and MTT (5 mg/mL) was added to each well. The cells were incubated at 37 °C for another 4 h. After that, supernatant was discarded, and DMSO was added and incubated at 37 °C for 15 min. Finally, absorbance was measured at 570 nm (Molecular Devices, USA).
To investigate whether CHNQD-01281 had selective inhibitory effect on cancer cell lines, a variety of human tumor cell lines were assayed by MTT, such as bladder cancer cell lines (J82 and T24), colorectal cancer cell lines (HCT-116, HT-29, HCT-8, DLD-1 and SW-480), cervical cancer cell line (Hela), esophageal cancer cell lines (TE-1 and Eca-109), breast cancer cell line (BT-549), gastric carcinoma cell lines (MGC-803 and SGC-7901), glioma cell line (U87), pancreatic carcinoma cell line (BxPC-3) and hepatocellular carcinoma cell lines (Hep G2, BEL-7402 and HuH-7) (Fig. 2A).

[1] = Solubility in selected aqueous solutions; type: physicochemical
From the text: The problem of poor water solubility is one of the factors that seriously restricts the preclinical application of BFA. Therefore, from the perspective of pharmaceutics, it is of great application value to explore safe and effective methods to improve its solubility. Based on the previous screening of commonly used solvents, solubilizers and co-solvents for BFA and its derivatives, we explored the solubility of CHNQD-01281, which was compared and assessed in selected aqueous solutions (Table 1). Saline or PBS were commonly used solvents, but the solubility of BFA or CHNQD-01281 was less than 1 mg/mL when used alone. No significant improvement in solubility was observed after the addition of DMSO or PEG400. […] More importantly, the solution system of CHNQD-01281 with saline/DMSO/solutol HS-15 (85/5/10) can fully meet the needs of follow-up experiments in vivo, such as pharmacodynamics, pharmacokinetics and safety evaluation.

[2] = tested on: human hepatocyte cell line L-02; assay: MTT cell proliferation assay; type: cell-based; settings: L-02, MTT, 72 h
Method: as §1, §2
Thus, the bladder cancer cell lines J82 and T24 were further investigated and treated by CHNQD-01281 under gradient concentrations (0.031−1.00 µmol/L) and times (24, 72 and 120 h) to measure proliferation activities (Fig. 2B). However, the inhibition of T24 or J82 cell lines by CHNQD-01281 was less than 50% even at the highest concentration of 1 µmol/L for 24 h. […] Therefore, CHNQD-01281 has a higher selectivity index compared to BFA.

For C[C@H]1CCC/C=C/[C@@H]2C[C@H](O)C[C@H]2[C@H](O)/C=C/C(=O)O1 [BFA, Brefeldin A, reference compound], the IC50 (T24 cells; Homo sapiens, T-24, T24, MTT, 72 h) was 22 nM, the “SI (selectivity index)” value (T24 cells; L-02 versus T24) was 1.91 and the solubility ([1]; 25 °C, pH 7.4, aqueous with cosolvent or surfactant or cyclodextrin, No. 2: Saline/DMSO 95/5, pH 7.4, 25 °C) was less than 1000 µg/mL. It also gave a solubility ([1]; 25 °C, pH 7.4, aqueous with cosolvent or surfactant or cyclodextrin, No. 3: PBS/DMSO 95/5, pH 7.4, 25 °C) of less than 1000 µg/mL, a solubility ([1]; 25 °C, pH 7.4, aqueous with cosolvent or surfactant or cyclodextrin, No. 4: Saline/PEG400 95/5, pH 7.4, 25 °C) of less than 1000 µg/mL and a solubility ([1]; 25 °C, pH 7.4, aqueous with cosolvent or surfactant or cyclodextrin, No. 5: Saline/PEG400 80/20, pH 7.4, 25 °C) of less than 1000 µg/mL. For the same compound, the solubility ([1]; 25 °C, pH 7.4, aqueous with cosolvent or surfactant or cyclodextrin, No. 6: Saline/DMSO/solutol HS-15 85/5/10, pH 7.4, 25 °C) was 1000 to 1500 µg/mL (≈ 3.57 to 5.35 mM), the solubility ([1]; 25 °C, pH 7.4, aqueous with cosolvent or surfactant or cyclodextrin, No. 7: Saline/solutol HS-15 95/5, pH 7.4, 25 °C) was less than 1000 µg/mL and the solubility ([1]; 25 °C, pH 7.4, aqueous with cosolvent or surfactant or cyclodextrin, No. 8: Saline/solutol HS-15 90/10, pH 7.4, 25 °C) was less than 1000 µg/mL. The solubility ([1]; 25 °C, pH 7.4, saline or isotonic, No. 1: Saline (0.9% NaCl) 100, pH 7.4, 25 °C) was less than 1000 µg/mL, the solubility ([1]; Saline or PBS used alone) was less than 1000 µg/mL and the IC50 [2] was 42 nM.
